From PubChem BioAssay AID330 (DTP/NCI, 2004)
Several values for one entry are separate records, joined by “and”; a condition that tells them apart may be missing. Equal entries are not always repeated. Inconclusive results and toxic doses are left out. How the source made its calls: active means survival T/C of 150% or more; inactive means T/C below 125% in these data.

Test system: P388 leukemia ip, CD2F1 mice, survival T/C
Assay: NCI In Vivo Anticancer Drug Screen. Data for tumor model P388 Leukemia (intraperitoneal) in CD2F1 (CDF1) mice
Details: endpoint: median survival time, higher = longer survival
Method in brief: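 Mice carrying the transplanted tumor received test compound or vehicle. Survival was recorded in each group, and the value is the treated-group measurement divided by that of the vehicle-treated control group.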

[1] = dose: 12.5 mg/kg/injection, schedule: Q01DX009 (ip), vehicle: saline with Tween-80
[2] = dose: 25.0 mg/kg/injection, schedule: Q01DX009 (ip), vehicle: saline with Tween-80
[3] = dose: 50.0 mg/kg/injection, schedule: Q01DX009 (ip), vehicle: saline with Tween-80
[4] = dose: 12.5 mg/kg/injection, schedule: Q01DX009 (ip), vehicle: saline
[5] = dose: 25.0 mg/kg/injection, schedule: Q01DX009 (ip), vehicle: saline
[6] = dose: 50.0 mg/kg/injection, schedule: Q01DX009 (ip), vehicle: saline
[7] = dose: 100.0 mg/kg/injection, schedule: Q01DX009 (ip), vehicle: saline
[8] = dose: 12.5 mg/kg/injection, schedule: Q04DX003 (ip), vehicle: saline
[9] = dose: 25.0 mg/kg/injection, schedule: Q04DX003 (ip), vehicle: saline
[10] = dose: 50.0 mg/kg/injection, schedule: Q01DX009 (ip), vehicle: Klucel (hydroxypropylcellulose) (HPC)
[11] = dose: 100.0 mg/kg/injection, schedule: Q01DX009 (ip), vehicle: Klucel (hydroxypropylcellulose) (HPC)
[12] = dose: 200.0 mg/kg/injection, schedule: Q01DX009 (ip), vehicle: Klucel (hydroxypropylcellulose) (HPC)

Measured: T/C

C=C(CN(C)C)C(=O)c1ccccc1
inactive: dose: 0.94 mg/kg/injection, schedule: Q01DX005 (ip), vehicle: saline 122 % of control | dose: 1.25 mg/kg/injection, schedule: Q01DX005 (ip), vehicle: saline 112 % of control | dose: 1.88 mg/kg/injection, schedule: Q01DX005 (ip), vehicle: saline 112 % of control | dose: 2.5 mg/kg/injection, schedule: Q01DX005 (ip), vehicle: saline 112 % of control | dose: 3.75 mg/kg/injection, schedule: Q01DX005 (ip), vehicle: saline 99 % of control and 97 % of control | dose: 5.0 mg/kg/injection, schedule: Q01DX005 (ip), vehicle: saline 98 % of control and 104 % of control

CCOC(=O)NNS(=O)(=O)CCC(NC(=O)OCc1ccccc1)C(=O)OCc1ccccc1 (stereo unspecified)
inactive: dose: 12.5 mg/kg/injection, schedule: Q01DX009 (ip), vehicle: other 96 % of control | dose: 25.0 mg/kg/injection, schedule: Q01DX009 (ip), vehicle: other 104 % of control | dose: 50.0 mg/kg/injection, schedule: Q01DX009 (ip), vehicle: other 104 % of control | dose: 100.0 mg/kg/injection, schedule: Q01DX009 (ip), vehicle: other 104 % of control | dose: 200.0 mg/kg/injection, schedule: Q01DX009 (ip), vehicle: other 104 % of control

CN(C)CCOc1ccc2c(c1)CC/C(=C\c1ncc([N+](=O)[O-])n1C)C2=O
inactive: [1] 108 % of control | [2] 108 % of control | [3] 109 % of control and 118 % of control

CC[C@@]1(O)C(=O)OCc2c1cc1n(c2=O)Cc2cc3c(OC)cccc3nc2-1
inactive: dose: 0.39 mg/kg/injection, schedule: Q04DX003 (ip), vehicle: other 115 % of control | dose: 2.25 mg/kg/injection, schedule: Q01DX009 (ip), vehicle: saline with Tween-80 100 % of control | dose: 3.0 mg/kg/injection, schedule: Q01DX009 (ip), vehicle: saline with Tween-80 103 % of control | dose: 6.25 mg/kg/injection, schedule: Q04DX003 (ip), vehicle: other 90 % of control
active: dose: 1.0 mg/kg/injection, schedule: Q01DX009 (ip), vehicle: saline with Tween-80 217 % of control | dose: 1.5 mg/kg/injection, schedule: Q01DX009 (ip), vehicle: saline with Tween-80 181 % of control and 192 % of control | dose: 3.13 mg/kg/injection, schedule: Q04DX003 (ip), vehicle: other 191 % of control

C=C(C)C(=O)Nc1ccc(NC(C)C)cc1
inactive: [1] 115 % of control | [4] 105 % of control | [2] 108 % of control | [5] 97 % of control | [3] 93 % of control and 96 % of control | [6] 90 % of control | [7] 102 % of control

O=C(O)C1C[n+]2ccccc2O1 (stereo unspecified)
inactive: [4] 100 % of control | [8] 91 % of control | [5] 100 % of control | [9] 100 % of control | [6] 109 % of control | dose: 50.0 mg/kg/injection, schedule: Q04DX003 (ip), vehicle: saline 95 % of control

Cc1ccc(S(=O)(=O)C(Sc2ccccc2)=S=NC(C)(C)C)cc1
inactive: [10] 104 % of control | [11] 98 % of control | [12] 109 % of control

Cc1ccc(S(=O)(=O)ON/N=c2\ccn(C)c3ccccc23)cc1
inactive: dose: 100.0 mg/kg/injection, schedule: Q04DX003 (ip), vehicle: saline 101 % of control | dose: 200.0 mg/kg/injection, schedule: Q04DX003 (ip), vehicle: saline 99 % of control | dose: 400.0 mg/kg/injection, schedule: Q04DX003 (ip), vehicle: saline 99 % of control

O=C(O)/C=C/c1c2ccc(=O)cc-2oc2cc(O)ccc12
inactive: dose: 60.0 mg/kg/injection, schedule: Q01DX005 (ip), vehicle: Klucel (hydroxypropylcellulose) (HPC) 103 % of control | dose: 120.0 mg/kg/injection, schedule: Q01DX005 (ip), vehicle: Klucel (hydroxypropylcellulose) (HPC) 103 % of control | dose: 240.0 mg/kg/injection, schedule: Q01DX005 (ip), vehicle: Klucel (hydroxypropylcellulose) (HPC) 91 % of control

COc1cc(OC)c(C2CC(C)(O)Oc3cc4c(cc32)OCO4)c(OC)c1 (stereo unspecified)
inactive: dose: 60.0 mg/kg/injection, schedule: Q01DX005 (ip), vehicle: saline with Tween-80 91 % of control | dose: 120.0 mg/kg/injection, schedule: Q01DX005 (ip), vehicle: saline with Tween-80 86 % of control | dose: 240.0 mg/kg/injection, schedule: Q01DX005 (ip), vehicle: saline with Tween-80 88 % of control

O=C(O)Cc1ccc([N+](=O)[O-])cc1[N+](=O)[O-]
inactive: [4] 100 % of control | [5] 92 % of control | [6] 100 % of control | [7] 91 % of control

C[N+](C)(C)CCBr
inactive: dose: 3.12 mg/kg/injection, schedule: Q01DX009 (ip), vehicle: saline 100 % of control | dose: 6.25 mg/kg/injection, schedule: Q01DX009 (ip), vehicle: saline 104 % of control | [4] 101 % of control | [8] 105 % of control | [5] 101 % of control | [9] 100 % of control

c1ccc2c(c1)cnc1c3ccccc3nn21
inactive: [10] 102 % of control | [11] 96 % of control | [12] 103 % of control

CCOC(=O)/C(C#N)=C\c1ccc(OCc2ccccc2)c(OCc2ccccc2)c1
inactive: dose: 12.5 mg/kg/injection, schedule: Q01DX005 (ip), vehicle: distilled water + alcohol 93 % of control | dose: 25.0 mg/kg/injection, schedule: Q01DX005 (ip), vehicle: distilled water + alcohol 87 % of control | dose: 50.0 mg/kg/injection, schedule: Q01DX005 (ip), vehicle: distilled water + alcohol 88 % of control | dose: 100.0 mg/kg/injection, schedule: Q01DX005 (ip), vehicle: Klucel (hydroxypropylcellulose) (HPC) 89 % of control | dose: 200.0 mg/kg/injection, schedule: Q01DX005 (ip), vehicle: Klucel (hydroxypropylcellulose) (HPC) 91 % of control

COC(=O)Nc1ccc(NC(=O)OC)c2c1C(=O)c1ccccc1C2=O
inactive: dose: 50.0 mg/kg/injection, schedule: Q01DX005 (ip), vehicle: saline 95 % of control | dose: 100.0 mg/kg/injection, schedule: Q01DX005 (ip), vehicle: saline 95 % of control | dose: 200.0 mg/kg/injection, schedule: Q01DX005 (ip), vehicle: saline 88 % of control

COC(=O)[CH2][Sn]([CH2]C(=O)OC)([c]1ccccc1)[c]1ccccc1
inactive: dose: 0.39 mg/kg/injection, schedule: Q01DX005 (ip), vehicle: Klucel (hydroxypropylcellulose) (HPC) 120 % of control | dose: 0.79 mg/kg/injection, schedule: Q01DX005 (ip), vehicle: Klucel (hydroxypropylcellulose) (HPC) 112 % of control

CSc1nc(Cl)cc(=O)n1C
inactive: dose: 6.25 mg/kg/injection, schedule: Q01DX005 (ip), vehicle: Klucel (hydroxypropylcellulose) (HPC) 104 % of control | dose: 12.5 mg/kg/injection, schedule: Q01DX005 (ip), vehicle: Klucel (hydroxypropylcellulose) (HPC) 105 % of control | dose: 25.0 mg/kg/injection, schedule: Q01DX005 (ip), vehicle: Klucel (hydroxypropylcellulose) (HPC) 100 % of control and 92 % of control

Cc1cc(C)c(CCl)c(C)c1CCl
inactive: dose: 25.0 mg/kg/injection, schedule: Q01DX009 (ip), vehicle: Klucel (hydroxypropylcellulose) (HPC) 106 % of control | [11] 100 % of control

COc1ccc2c(NCCCCNc3c4ccccc4nc4cc(OC)ccc34)c3ccccc3nc2c1
inactive: dose: 0.62 mg/kg/injection, schedule: Q01DX009 (ip), vehicle: other 101 % of control | dose: 1.25 mg/kg/injection, schedule: Q01DX009 (ip), vehicle: other 102 % of control | dose: 2.5 mg/kg/injection, schedule: Q01DX009 (ip), vehicle: other 108 % of control | dose: 5.0 mg/kg/injection, schedule: Q01DX009 (ip), vehicle: other 101 % of control | dose: 10.0 mg/kg/injection, schedule: Q01DX009 (ip), vehicle: other 107 % of control | dose: 20.0 mg/kg/injection, schedule: Q01DX009 (ip), vehicle: other 110 % of control

Cc1cc(Cl)cc(S(=O)(=O)O)c1N
inactive: dose: 100.0 mg/kg/injection, schedule: Q04DX003 (ip), vehicle: Klucel (hydroxypropylcellulose) (HPC) 95 % of control | dose: 200.0 mg/kg/injection, schedule: Q04DX003 (ip), vehicle: Klucel (hydroxypropylcellulose) (HPC) 97 % of control | dose: 400.0 mg/kg/injection, schedule: Q04DX003 (ip), vehicle: Klucel (hydroxypropylcellulose) (HPC) 97 % of control

CCOC(=O)CN1C=CC(=C/C(=N/S(=O)(=O)c2ccc(C)cc2)SC)C=C1
inactive: dose: 25.0 mg/kg/injection, schedule: Q04DX002 (ip), vehicle: saline with Tween-80 100 % of control | dose: 50.0 mg/kg/injection, schedule: Q04DX002 (ip), vehicle: saline with Tween-80 106 % of control | dose: 100.0 mg/kg/injection, schedule: Q04DX002 (ip), vehicle: saline with Tween-80 104 % of control
